Experimental data: patent US6500849B1, “1-alkyl-, 1-alkenyl-, and 1-alkynylaryl-2-amino 1,3-propanediols and related compounds” (Aventis Pharmaceuticals Inc., priority 1990, dated 2002)
In brackets after ≈: the same amount, converted by molar mass.

Legend:
male CFW mice = experiment: Dark avoidance assay (reversal of scopolamine induced memory deficits); type: in vivo; details: sc, scopolamine 3.0 mg/kg sc
Method: In this assay, three groups of 15 male CFW mice were used—a vehicle/vehicle control group, a scopolamine/vehicle group, and a scopolamine/drug group. Thirty minutes prior to training, the vehicle/vehicle control group received normal saline subcutaneously, and the scopolamine/vehicle and scopolamine/drug groups received scopolamine subcutaneously (3.0 mg/kg, administered as scopolamine hydrobromide). Five minutes prior to training, the vehicle/vehicle control and scopolamine/vehicle groups received distilled water and the scopolamine/drug group received the test compound in distilled water.
The training/testing apparatus consisted of a plexiglass box approximately 48 cm long, 30 cm high and tapering from 26 cm wide at the top to 3 cm wide at the bottom. The interior of the box was divided equally by a vertical barrier into a light compartment (illuminated by a 25-watt reflector lamp suspended 30 cm from the floor) and a dark compartment (covered). There was a hole at the bottom of the barrier 2.5 cm wide and 6 cm tall and a trap door which could be dropped to prevent an animal from passing between the two compartments. […]
At the end of the pretreatment interval, an animal was placed in the light chamber directly under the light fixture, facing away from the door to the dark chamber. […] The latency is seconds for each mouse was recorded.
The test day latency in seconds for each animal was recorded and the animals were then discarded.
The high degree of variability (due to season of the year, housing conditions, and handling) found in one trial passive avoidance paradigm is well known. To control for this fact, individual cutoff (CO) values were determined for each test, compensating for interest variability. […]
The results of the dark avoidance test are expressed as the number of animals per group (%) in which this scopolamine induced memory deficit is blocked as measured by an increase in the latency period.

Protein kinase C = Protein kinase C assay (32P incorporation into Type III histone); type: biochemical, rat; details: for IC50: rat brain protein kinase C, phosphatidylserine/diacylglycerol stimulated, read-out: Protein Kinase Inhibitory Activity IC50
Method: (see U. Kikkawa, et al., Biochemical and Biophysical Research Communications, 135, 636 (1986) and R. M. Bell, et al. “Methods in Enzymology, Hormone Action,” Part J, P.M. Conn, Ed., Academic Press, Inc., New York, N.Y. 1986, page 353). Protein kinase C enzyme extract was prepared from the brain of male Wistar rats weighing 180 to 200 g and purified by the method of U. Kikkawa, et al., ibid. 636. The purified extract was stored at −80° C., and aliquots were used in the protein kinase C assay performed by a modification of the method of R. M. Bell, et al., ibid. al 354. To perform the assay, duplicate aliquots of duplicate samples are employed. Basal or unstimulated protein kinase C, phosphatidylserine/diacylglycerol stimulated protein kinase C, and test samples are run in each assay. […] The assay tubes were allowed to warm to 25° C. and an 8 μl mixture of adenosine 5′-triphosphate (100 μM) and ^32P-adenosine triphosphate (1 to 2×10^5 counts per minute) was added to each tube for a final volume of 80 μl per tube. After 2 min, the reaction (the incorporation of phosphorous into Type III histone) was terminated by spotting the assay mixture on phosphocellulose paper. The spots are cut out of the paper and the radioactivity (counts per min) of each spot was determined in a scintillation counter.

[1] = test system: female Swiss Webster mice; experiment: TPA-induced ear edema assay; type: in vivo; details: 10 μg/ear topical, after about 5 hours
Method: In the TPA-induced ear edema assay, TPA (12-O-tetradecanoylphorbol-13-acetate) was dissolved in 30/70 propylene glycol/ethanol and was applied to the right ear of groups of 6 female Swiss Webster mice, which were housed together in a cage under standard conditions for 1 week prior to use with food and water ad lib, at a volume of 20 μl so that a total of 10 μg of TPA is delivered to the inner and outer surfaces of the ear. The test compound was dissolved in the vehicle and was applied to the right ear (the inner and outer surface) at a volume of 20 μl so that a total of 10 μg of the compound was delivered to the ear. After about 5 hours, the animals were sacrificed, a 4 mm diameter plug was taken from each ear and weighed. The difference between the right and left ear plug weights for each animal was determined. The antiinflammatory activity of the test compound is expressed as the mean percent change in the ear plug weight of the treated animals compared to the mean percent change in the plug weight of the control animals.

Aspergillus Niger = experiment: Antifungal assay (microtitration technique); type: cell-based; details: Aspergillus Niger strain 500/284, 5 days at 30° C.; for MIC: 120 h
Method: (§1) The microtiter plate is prepared as follows: The wells are each filled (2 rows/strain) with 50 μl neopeptone-dextrose broth (12-channel pipette). In addition, one row/strain is coated with 50 μl yeast-nitrogen base/well for yeasts and moulds. […] All wells are then inoculated with 150 μl standardized organism suspension (yeasts: 1×10^3 organisms/ml suspension; cutaneous fungi and moulds: 1.6×10^5 organisms/ml suspension); the total volume is 200 μl per well. There is also a growth control (inoculated, not medicated), a solvent control (inoculated, not medicated, containing solvent as in medicated rows) and a negative control (not inoculated, not medicated). Incubation for 5 days at 30° C. is followed by photometric evaluation. The obtained measurements are checked visually (macroscopically and microscopically) and corrected where necessary. Criteria for Evaluation of the Antimycotic Effect a. Photometric measurements (matrix method) b. Growth, macroscopic evaluation c. Growth, microscopic evaluation (inversion light microscope, magn. 64×).

Candida Albicans = experiment: Antifungal assay (microtitration technique); type: cell-based; details: Candida Albicans strain 200/175, 5 days at 30° C.; for MIC: 120 h
Method: as §1

Microsporum Canis = experiment: Antifungal assay (microtitration technique); type: cell-based; details: Microsporum Canis strain 150/353, 5 days at 30° C.; for MIC: 120 h
Method: as §1

[2] = test system: Trichophyton Mentagrophytes; experiment: Antifungal assay (microtitration technique); type: cell-based; details: Trichophyton Mentagrophytes strain 100/25, 5 days at 30° C.; for MIC: 120 h
Method: as §1

Trichophyton Rubrum = experiment: Antifungal assay (microtitration technique); type: cell-based; details: Trichophyton Rubrum strain 101/85, 5 days at 30° C.; for MIC: 120 h
Method: as §1

Trichophyton Vaginalis = experiment: Antifungal assay (microtitration technique); type: cell-based; details: Trichophyton Vaginalis strain 111/216, 5 days at 30° C.; for MIC: 120 h
Method: as §1

Bact. fragilis = experiment: Anerobic antibacterial assay (agar dilution, Wilkins-Chalgren agar); type: cell-based; details: anaerobic, 48 hours at 37° C.
Bact. ovatus = experiment: as above; type: cell-based; details: Bact. ovatus 103; anaerobic; 48 hours at 37° C.
Bact. vulgatus = experiment: as above; type: cell-based; details: Bact. vulgatus 1446; anaerobic; 48 hours at 37° C.
Bact. thetaiotaom. = experiment: as above; type: cell-based; details: anaerobic, 48 hours at 37° C.
Bact. distasonis = experiment: as above; type: cell-based; details: Bact. distasonis 1366; anaerobic; 48 hours at 37° C.
Fusobact. varium = experiment: as above; type: cell-based; details: anaerobic, 48 hours at 37° C.
Spaeroph. freundii = experiment: as above; type: cell-based; details: Spaeroph. freundii 1369; anaerobic; 48 hours at 37° C.
Peptostr. anaerobius = experiment: as above; type: cell-based; details: Peptostr. anaerobius 932; anaerobic; 48 hours at 37° C.
Propionibact. acnes = experiment: as above; type: cell-based; details: anaerobic, 48 hours at 37° C.
Clost. tetani = experiment: as above; type: cell-based; details: Clost. tetani 19406; anaerobic; 48 hours at 37° C.
Clost. perfringens = experiment: microbe, parasite or virus in culture; type: cell-based; details: Clost. perfringens 194; anaerobic; 48 hours at 37° C.

CCCCCCCCC#Cc1cccc(C(O)C(NC(C)=O)C(=O)OCC)n1 (stereo not drawn) [Ethyl erythro-2-acetamido-3-[6-(1-Decynyl)-2-pyridinyl]-3-hydroxypropionate]
Percent of Animals with Scopolamine Induced Memory Deficit Reversal (male CFW mice; Dose 3.0 mg/kg): 27%

CCCCCCCCCCC=Cc1cccc(C(O)C(CO)NC(C)=O)n1 (stereo not drawn) [cis-erythro-N-{1-[6-(1-Dodecenyl)-2-pyridinyl]-1,3-dihydroxy-2-propanyl}acetamide]
Protein Kinase Inhibitory Activity, percent inhibition at a single concentration (Protein kinase C; @ 100 μM): 66% @ 100 μM

CCCCCCCCCCC#Cc1cccc(C(O)C(NC(C)=O)C(=O)OCC)n1 (stereo not drawn) [Ethyl erythro-2-acetamido-3-[6-(1-Dodecynyl)-2-pyridinyl]-3-hydroxypropionate]
Antiinflammatory Activity Percent Decrease in Ear Plug Weight at 10 μg/ear [1]: 50% | IC50 (Protein kinase C): 29 µM

CCCCCCCCC#Cc1cccc(C(O)C(CO)NC(C)=O)n1 (stereo not drawn) [erythro-N-{1-[6(1-Decynyl)-2-pyridinyl]-1,3-dihydroxy 2-propanyl}acetamide]
Percent of Animals with Scopolamine Induced Memory Deficit Reversal (male CFW mice; Dose 3.0 mg/kg): 33%

Clc1ccccc1C(c1ccccc1)(c1ccccc1)n1ccnc1 [Clotrimazol, reference compound]
MIC (Aspergillus Niger): 1.95 µg/mL (≈ 5.65 µM) | MIC (Candida Albicans): 3.9 µg/mL (≈ 11.3 µM) | MIC (Microsporum Canis): 0.06 µg/mL (≈ 0.174 µM) | MIC [2]: 0.97 µg/mL (≈ 2.81 µM) | MIC (Trichophyton Rubrum): 0.24 µg/mL (≈ 0.696 µM) | MIC (Trichophyton Vaginalis): 62.5 µg/mL (≈ 181 µM)

CNC(=O)Oc1ccc2c(c1)[C@]1(C)CCN(C)[C@@H]1N2C [physostigmine, reference compound]
Percent of Animals with Scopolamine Induced Memory Deficit Reversal (male CFW mice; Dose 0.31 mg/kg): 20%

CCCCCCCCCCc1cccc(C(O)C(N)CO)n1 (stereo not drawn) [threo-2-amino-1-(6-decyl)-2-pyridinyl)-1,3-propanediol] [threo-2-Amino-1-(6-Decyl-2-pyridinyl)-1,3-dihydroxypropane]
Antiinflammatory Activity Percent Decrease in Ear Plug Weight at 10 μg/ear [1]: 30% | IC50 (Protein kinase C): 25 µM

CCCCCCCCCCC#Cc1ccc(C(O)C(N)CO)s1 (stereo not drawn) [erythro-2-Amino-1-[5-(1-Dodecynyl)-2-thienyl]-1,3-propanediol]
Antibacterial activity (MIC, mg/l) (Bact. fragilis; Bact. fragilis 312): 6.25 mg/L | Antibacterial activity (MIC, mg/l) (Bact. fragilis; Bact. fragilis 960): 6.25 mg/L | Antibacterial activity (MIC, mg/l) (Bact. fragilis; Bact. fragilis 1313): 6.25 mg/L | Antibacterial activity (MIC, mg/l) (Bact. fragilis; Bact. fragilis 17390): 3.13 mg/L | Antibacterial activity (MIC, mg/l) (Bact. fragilis; Bact. fragilis 18125): 3.13 mg/L | Antibacterial activity (MIC, mg/l) (Bact. fragilis; Bact. fragilis 19016): 6.25 mg/L | Antibacterial activity (MIC, mg/l) (Bact. ovatus): 3.13 mg/L | Antibacterial activity (MIC, mg/l) (Bact. vulgatus): 3.13 mg/L | Antibacterial activity (MIC, mg/l) (Bact. thetaiotaom.; Bact. thetaiotaom. 123): 3.13 mg/L | Antibacterial activity (MIC, mg/l) (Bact. thetaiotaom.; Bact. thetaiotaom. 1428): 6.25 mg/L | Antibacterial activity (MIC, mg/l) (Bact. thetaiotaom.; Bact. thetaiotaom. 1445): 3.13 mg/L | Antibacterial activity (MIC, mg/l) (Bact. distasonis): 3.13 mg/L | Antibacterial activity (MIC, mg/l) (Fusobact. varium; Fusobact. varium 3085): 6.25 mg/L | Antibacterial activity (MIC, mg/l) (Fusobact. varium; Fusobact. varium 5262): 3.13 mg/L | Antibacterial activity (MIC, mg/l) (Spaeroph. freundii): 1.56 mg/L | Antibacterial activity (MIC, mg/l) (Peptostr. anaerobius): 6.25 mg/L | Antibacterial activity (MIC, mg/l) (Propionibact. acnes; Propionibact. acnes 6919): 3.13 mg/L | Antibacterial activity (MIC, mg/l) (Propionibact. acnes; Propionibact. acnes 6922): 1.56 mg/L | Antibacterial activity (MIC, mg/l) (Clost. tetani): 6.25 mg/L | Antibacterial activity (MIC, mg/l) (Clost. perfringens): 6.25 mg/L | Antifungal Activity MIC (Aspergillus Niger): 3.900 µg/mL | Antifungal Activity MIC (Candida Albicans): 1.950 µg/mL | Antifungal Activity MIC (Microsporum Canis): 3.900 µg/mL | Antifungal Activity MIC [2]: 3.900 µg/mL | Antifungal Activity MIC (Trichophyton Rubrum): 15.625 µg/mL | Antifungal Activity MIC (Trichophyton Vaginalis): 15.625 µg/mL

CCCCCCCCCCCCc1cccc(C(O)C(N)CO)n1 (stereo not drawn) [erythro-2-Amino-1-(6-Dodecyl-2-pyridinyl)-1,3-propanediol]
Antiinflammatory Activity Percent Decrease in Ear Plug Weight at 10 μg/ear [1]: 24% | IC50 (Protein kinase C): 8.5 µM

Cc1cc(C2CCCCC2)n(O)c(=O)c1 [Cyclopirox, reference compound]
MIC (Aspergillus Niger): 0.97 µg/mL (≈ 4.68 µM) | MIC (Candida Albicans): 1.95 µg/mL (≈ 9.41 µM) | MIC (Microsporum Canis): 1.95 µg/mL (≈ 9.41 µM) | MIC [2]: 1.95 µg/mL (≈ 9.41 µM) | MIC (Trichophyton Rubrum): 1.95 µg/mL (≈ 9.41 µM) | MIC (Trichophyton Vaginalis): 15.6 µg/mL (≈ 75.4 µM)
